In the assay the test system is NCI-H1876 complex spheroid growth, % test/control. In words: Anticancer human tumor NCI-H1876 cell line growth inhibition [Asc].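 On all read-outs here: compound exposure lasted 7 days starting three days after seeding.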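 On viability, T/C: 100% = DMSO vehicle control wells.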 Particulars: for viability, T/C: stronger effect = lower value. Here is the method: Multicellular complex tumor spheroid response to apoptosis pathway targeting inhibitors Alrizomadlin, Pelcitoclax, and Dasminapant in combination with a variety of drugs and investigational agents in selected tumor cell lines
The MDM2 inhibitor alrizomadlin, the Bcl-2/Bcl-xL inhibitor pelcitoclax, and the IAPs inhibitor dasminapant were evaluated both individually and in combination with standard of care and investigational anticancer small molecules within a complex spheroid model of solid tumors. . Complex spheroids include a stromal component modeled by human endothelial cells (HUVEC) and fibroblasts modeled by human mesenchymal stem cells (MSCs). The concentration ranges selected for each drug and investigational agent were based upon clinically achievable concentrations if the clinical Cmax of the agent was known.
Compounds. The drugs and investigational agents: alrizomadlin (APG-115; NSC831270), pelcitoclax (APG-1252; NSC835773), dasminapant (APG-1387;NSC834197), TAK-243 (NSC785004), copanlisib (NSC809693), olaparib (NSC753686), talazoparib (NSC767125), cobimetinib (NSC 768068), eltanexor (KPT-8602, NSC 794443), abemaciclib (NSC 768073), sotorasib (NSC818433), adagrasib (NSC 831453), MRTX-1133 (NSC 836407), Iadademestat (ORY1001, NSC 806812), and RMC-4630 (NSC839698), were obtained from the NCI Developmental Therapeutics Program Chemical Repository. The FDA-approved anticancer drug set is available from the Developmental Therapeutics Program at https://dtp.cancer.gov/organization/dscb/obtaining/available plates.htm. […] The stock solutions were prepared in dimethyl sulfoxide (DMSO, Sigma-Aldrich, St. Louis, MO, cat. D2650) at 800-fold the tested concentration and stored at -70 degrees C prior to their use. All drugs and investigational agents were tested over a range starting from a high concentration at or near the clinical Cmax and decreasing in half-log increments. If the clinical Cmax for an agent had not been determined, the highest concentration tested was 10 microM.
The patient-derived cancer (PDC) cell lines include five colon adenocarcinomas: 186277-243-T-J2-PDC, 616215-338-R-J1-PDC, 439559-082-T-J2-PDC, 463943-066-T-J2-PDC, and 519858-162-T-J1-PDC; three pancreatic carcinomas: 323965-272-R-J2-PDC, 521955-158-R6-J3-PDC, and 521955-158-R2-J5-PDC; two uterine sarcomas: 327498-152-R-J2-PDC and 993429-296-R-J1-PDC; two rhabdomyosarcomas: 755483-174-R-J1-PDC and 772245-204-R-J1-PDC; two soft tissue sarcomas: 126254-015-R-J1-PDC and 494315-158-R-J1-PDC; two malignant fibrous histiocytomas: 317291-083-R-J1-PDC and 596521-263-R-J1-PDC; two breast carcinomas: 171881-019-R-J1-PDC and 885512-296-R-J2-PDC; and one ovarian carcinoma: 6556581-035-R-J-PDC were obtained from the NCI PDMR, (https://pdmr.cancer.gov). The established cell lines HSSY-2 synovial sarcoma (RRID:CVCL 8719), SYO-1 synovial sarcoma (RRID:CVCL_7146), MPNST malignant peripheral neural sheath tumor were obtained from the Sloan Kettering Institute. The following established cell lines were purchased from the American Type Culture Collection (ATCC, Manassas, VA), Sor the received from the NCI repository:, PANC-1 pancreatic carcinoma (CRL-1469, RRID:CVCL_0480), OVCAR-5 ovarian carcinoma (RRID:CVCL_1628), OVCAR-8 ovarian carcinoma (RRID:CVCL_1629), , MCF-7 breast carcinoma (CRL-12584, RRID:CVCL_0031), MDA-MB-231 breast carcinoma (CRL-12532, RRID:CVCL_0062), NCI-H1876 small cell lung carcinoma (CRL-5902, RRID:CVCL_1503), NCI-H510A small cell lung carcinoma (HTB-184, RRID:CVCL_1565), NCI-H1417 (CRL-5869, RRID:CVCL_1469), and NCI-H196 small cell lung carcinoma (CRL-5823, RRID:CVCL_1509). Dr. Peter Houghton (Greehey Children's Cancer Research Institute, University of Texas Health Science Center, San Antonio, TX) provided Rh-18 rhabdomyosarcoma (RRID:CVCL_1659). Pooled donor human umbilical vein endothelial cells (HUVEC, Lonza, cat. CC-2519) and human mesenchymal stem cells (hMSC, Lonza, cat. PT-2501) were purchased from Lonza (Walkersville, MD).
Cell Culture. […]

Where [1] appears, read: compound alone, run of 11/07/2022.

As usually defined, the viability, T/C is the ratio of treated to control. One may read the IC50 as the concentration at which inhibition is half-maximal.

Values joined by “and” are separate entries in the source; they are usually repeats but may differ in a detail not shown here. Equal entries are not always repeated.

For the compound `C#Cc1c(F)ccc2cc(O)cc(-c3ncc4c(N5CC6CCC(C5)N6)nc(OCC56CCCN5CC(F)C6)nc4c3F)c12` (stereo not given), the viability, T/C reads like this: (compound 0.0316 µM) 104% (2×) and 97.2%; (compound 0.1 µM) 82.3% and 98.9% and 99.3%; (compound 0.316 µM) 112% and 115% and 94.7%; (compound 1 µM) 92.9% and 80.2% and 91%; (compound 3.16 µM) 90.2% and 97.4% and 102%; (compound 10 µM) 89.6% (2×) and 88.2%. Besides, the IC50 (curve of compound) is above 10 µM.
Take `C=C(F)C(=O)N1CCN(c2nc(OCC3CCCN3C)nc3c2CCN(c2cccc4cccc(Cl)c24)C3)CC1CC#N` (stereo not given): the viability, T/C (compound 0.0316 µM) was 94.3% and 102% and 97.8%; the viability, T/C (compound 0.1 µM) was 97.6% and 92.2% and 89.2%; the viability, T/C (compound 0.316 µM) is 101% and 95.3% and 93%; the viability, T/C (compound 1 µM) was 108% and 93% and 105%; the viability, T/C (compound 3.16 µM) is 98% and 90.9% and 102%. Moreover, where the note is “curve of compound”, the IC50 was 5.59 µM and 6 µM and 6.86 µM.
With `C=CC(=O)N1CCN(c2nc(=O)n(-c3c(C)ccnc3C(C)C)c3nc(-c4c(O)cccc4F)c(F)cc23)C(C)C1` (stereo not given), the viability, T/C by setting is: (compound 0.0316 µM) 116% and 95.9% and 101%; (compound 0.1 µM) 99.4% and 96% and 86.8%; (compound 0.316 µM) 106% and 93.2% and 97.1%; (compound 1 µM) 101% (2×) and 100%; (compound 3.16 µM) 113% and 108% and 106%; (compound 10 µM) 110% and 106% and 109%. In addition, the IC50 (curve of compound) was above 10 µM.
For `CCN1C(C(=O)NC23CCC(C(=O)O)(CC2)CC3)C(c2cccc(Cl)c2F)C2(C(=O)Nc3cc(Cl)ccc32)C12CCCCC2` (stereo not given), the viability, T/C is, setting by setting: (compound 0.00949 µM) 109% [middle of 9 runs]; (compound 0.0949 µM) 103% [middle of 9 runs]; (compound 3 µM) 107% [middle of 9 runs]. Besides, the IC50 reads like this: under setting [1], above 3 µM; (curve of compound) above 3 µM.
For `CCN1CCN(Cc2ccc(Nc3ncc(F)c(-c4cc(F)c5nc(C)n(C(C)C)c5c4)n3)nc2)CC1`, the viability, T/C (compound 0.00316 µM) is 101% and 103% and 104%; the viability, T/C (compound 0.01 µM) was 94.1% and 101% and 89.8%; the viability, T/C (compound 0.0316 µM) is 97.1% and 101% and 106%; the viability, T/C (compound 0.1 µM) is 105% and 100% and 106%; the viability, T/C (compound 0.316 µM) was 114% (2×) and 120%; the viability, T/C (compound 1 µM) is 126% and 132% and 131%. In addition, for the setting “curve of compound”, the IC50 is above 1 µM.
For the compound `CNC(C)C(=O)NC1CN(S(=O)(=O)c2cccc(S(=O)(=O)N3CCC4CCC(C(=O)NC(c5ccccc5)c5ccccc5)N4C(=O)C(NC(=O)C(C)NC)C3)c2)CCC2CCC(C(=O)NC(c3ccccc3)c3ccccc3)N2C1=O` (stereo not given), the viability, T/C is 103% [middle of 9 runs] (compound 0.01 µM); 105% [middle of 9 runs] (compound 0.0316 µM); 103% [middle of 9 runs] (compound 0.1 µM); 101% [middle of 9 runs] (compound 0.316 µM); 93.7% [middle of 9 runs] (compound 1 µM). The half-maximal inhibitory concentration (IC50) (compound alone, run of 11/15/2022) was above 1 µM and the IC50 (curve of compound) is above 1 µM.
Take `COc1c(OCCCN2CCOCC2)ccc2c3n(c(=NC(=O)c4cnc(N)nc4)nc12)CCN3`: the viability, T/C was 106% and 91.5% and 100% (compound 0.00316 µM); 89.7% and 97.9% and 107% (compound 0.01 µM); 85% and 84.5% and 99.3% (compound 0.0316 µM); 79.1% and 75.3% and 72% (compound 0.1 µM); 64.5% and 59.5% and 60.7% (compound 0.316 µM); 48.8% and 45.6% and 44.9% (compound 1 µM). Besides, where the note is “curve of compound”, the IC50 is 0.724 µM and 0.679 µM and 0.992 µM.
As for `Cc1c(S(C)(=O)=O)c(-c2cc(F)cc(N3CCN(c4ccc(NS(=O)(=O)c5ccc(NC(CCN6CCC(C(=O)OCCCP(=O)(O)O)CC6)CSc6ccccc6)c(S(=O)(=O)C(F)(F)F)c5)cc4)CC3)c2)c(-c2ccc(Cl)cc2)n1C(C)C` (stereo not given), the viability, T/C (compound 0.0316 µM) is 109% [middle of 7 runs]; the viability, T/C (compound 0.1 µM) was 101% [middle of 7 runs]; the viability, T/C (compound 0.316 µM) is 96.3% [middle of 7 runs]; the viability, T/C (compound 1 µM) was 90.5% [middle of 7 runs]; the viability, T/C (compound 3.16 µM) is 95.5% [middle of 7 runs]; the viability, T/C (compound 10 µM) was 102% [middle of 7 runs]. The half-inhibitory concentration (IC50) under setting [1] is above 10 µM.
As to `Cc1nc(N2CCC3(CC2)COC(C)C3N)c(CO)nc1Sc1ccnc(N)c1Cl` (stereo not given), the viability, T/C by setting is: (compound 0.00949 µM) 102% and 105% and 103%; (compound 0.03 µM) 92.8% and 87.9% and 89.1%; (compound 0.0949 µM) 103% and 84.3% and 92.5%; (compound 0.3 µM) 79.5% and 84.7% and 86%; (compound 0.949 µM) 78.4% and 84% and 94.5%; (compound 3 µM) 75.5% and 87.1% and 88.2%. Moreover, the IC50 (curve of compound) was above 3 µM.
Regarding `Cn1ncnc1[C@H]1c2n[nH]c(=O)c3cc(F)cc(c23)N[C@@H]1c1ccc(F)cc1`, the viability, T/C reads like this: (compound 0.000316 µM) 93.5% and 106% and 102%; (compound 0.001 µM) 90.9% and 86.1% and 110%; (compound 0.00316 µM) 95.7% and 88.1% and 105%; (compound 0.01 µM) 102% and 96.1% and 94.6%; (compound 0.0316 µM) 98.4% and 99.3% and 105%; (compound 0.1 µM) 86% and 101% and 97.6%. Under “curve of compound”, the IC50 was above 0.1 µM.
Turning to `NC(=O)C(=Cn1cnc(-c2cc(C(F)(F)F)cc(C(F)(F)F)c2)n1)c1cncnc1`, the viability, T/C (compound 0.000949 µM) is 104% and 99.4% (2×); the viability, T/C (compound 0.003 µM) was 90.3% and 91.5% and 85.9%; the viability, T/C (compound 0.00949 µM) was 93.9% and 92.5% and 90.8%; the viability, T/C (compound 0.03 µM) is 92.4% and 98.6% and 97.9%; the viability, T/C (compound 0.0949 µM) was 97.5% and 80.5% and 104%; the viability, T/C (compound 0.3 µM) is 74.8% and 77.2% and 94.8%. For the same compound, the IC50 (curve of compound) was above 0.3 µM.
`NC1CCC(NC2CC2c2ccccc2)CC1` (stereo not given): the viability, T/C by setting is: (compound 0.000316 µM) 121% and 119% (2×); (compound 0.001 µM) 108% and 95.7% and 118%; (compound 0.00316 µM) 118% and 112% and 134%; (compound 0.01 µM) 116% and 106% and 120%; (compound 0.0316 µM) 116% and 112% and 131%; (compound 0.1 µM) 107% and 112% and 136%. Moreover, under “curve of compound”, the IC50 was above 0.1 µM.
Turning to `O=C(c1cc(Cc2n[nH]c(=O)c3ccccc23)ccc1F)N1CCN(C(=O)C2CC2)CC1`, the viability, T/C reads like this: (compound 0.0316 µM) 94.3% and 103% and 108%; (compound 0.1 µM) 84.8% and 92.7% and 94%; (compound 0.316 µM) 105% and 102% (2×); (compound 1 µM) 115% and 118% and 99.5%; (compound 3.16 µM) 96.9% and 121% and 98.1%; (compound 10 µM) 75.5% and 85.2% and 68.7%. In addition, under “curve of compound”, the half-inhibitory concentration (IC50) is above 10 µM.
Take `O=C(c1ccc(F)c(F)c1Nc1ccc(I)cc1F)N1CC(O)([C@@H]2CCCCN2)C1`: the viability, T/C was 101% and 103% (2×) (compound 0.00316 µM); 86.9% and 95% and 94% (compound 0.01 µM); 93.7% and 92.9% and 99% (compound 0.0316 µM); 97.5% and 91.4% and 95% (compound 0.1 µM); 86.5% and 84.5% and 83.9% (compound 0.316 µM); 79.9% and 75.1% and 76.9% (compound 1 µM). Besides, the half-inhibitory concentration (IC50) (curve of compound) is above 1 µM.

The values are drawn from PubChem BioAssay AID1963441 (Molecular Pharmacology Branch, DTP, NCI, 2024).
